Tests used:
Assay type in all cases: in vivo
[1] = system: barnyardgrass (Echinochloa crus-galli); experiment: Test A preemergence soil spray, visual injury rating 0-100; settings: 10 days, 0 = no effect, 100 = complete control
How it was run: (§1)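 Grow plants in loam soil blended with sand. Apply formulated compound (non-phytotoxic solvent, surfactant) as a directed soil spray before emergence, or to plants at the one- to two-leaf stage after emergence. Hold in greenhouse 10 days, then rate injury visually versus untreated controls on a 0-100 scale.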

[2] = system: blackgrass (Alopecurus myosuroides); experiment: as above; settings: 10 days, 0 = no effect, 100 = complete control
How it was run: as §1

corn (Zea mays) [3] = experiment: as above; settings: 10 days, 0 = no effect, 100 = complete control
How it was run: as §1

[4] = system: green foxtail (Setaria viridis); experiment: as above; settings: 10 days, 0 = no effect, 100 = complete control
How it was run: as §1

kochia (Bassia scoparia) [5] = experiment: as above; settings: 10 days, 0 = no effect, 100 = complete control
How it was run: as §1

[6] = system: oat, wild (wild oat, Avena fatua); experiment: as above; settings: 10 days, 0 = no effect, 100 = complete control
How it was run: as §1

[7] = system: palmer (palmer amaranth, palmer pigweed, Amaranthus palmeri); experiment: as above; settings: 10 days, 0 = no effect, 100 = complete control
How it was run: as §1

[8] = system: ragweed (common ragweed, Ambrosia artemisiifolia); experiment: as above; settings: 10 days, 0 = no effect, 100 = complete control
How it was run: as §1

[9] = system: ryegrass, Italian (italian ryegrass, Lolium multiflorum); experiment: as above; settings: 10 days, 0 = no effect, 100 = complete control
How it was run: as §1

soybean (Glycine max) [10] = experiment: as above; settings: 10 days, 0 = no effect, 100 = complete control
How it was run: as §1

[11] = system: wheat (Triticum aestivum); experiment: as above; settings: 10 days, 0 = no effect, 100 = complete control
How it was run: as §1

[12] = system: barnyardgrass (Echinochloa crus-galli); experiment: Test A postemergence application, visual injury rating 0-100; settings: Postemergence, 10 days, 0 is no effect, 100 is complete control
How it was run: as §1

[13] = system: blackgrass (Alopecurus myosuroides); experiment: as above; settings: Postemergence, 10 days, 0 is no effect, 100 is complete control
How it was run: as §1

corn (Zea mays) [14] = experiment: as above; settings: Postemergence, 10 days, 0 is no effect, 100 is complete control
How it was run: as §1

[15] = system: galium (catchweed bedstraw, Galium aparine); experiment: as above; settings: Postemergence, 10 days, 0 is no effect, 100 is complete control
How it was run: as §1

[16] = system: green foxtail (Setaria viridis); experiment: as above; settings: Postemergence, 10 days, 0 is no effect, 100 is complete control
How it was run: as §1

[17] = system: horseweed (Erigeron canadensis); experiment: as above; settings: Postemergence, 10 days, 0 is no effect, 100 is complete control
How it was run: as §1

kochia (Bassia scoparia) [18] = experiment: as above; settings: Postemergence, 10 days, 0 is no effect, 100 is complete control
How it was run: as §1

[19] = system: oat, wild (wild oat, Avena fatua); experiment: as above; settings: Postemergence, 10 days, 0 is no effect, 100 is complete control
How it was run: as §1

[20] = system: palmer (palmer amaranth, palmer pigweed, Amaranthus palmeri); experiment: as above; settings: Postemergence, 10 days, 0 is no effect, 100 is complete control
How it was run: as §1

[21] = system: ragweed (common ragweed, Ambrosia artemisiifolia); experiment: as above; settings: Postemergence, 10 days, 0 is no effect, 100 is complete control
How it was run: as §1

[22] = system: ryegrass, Italian (italian ryegrass, Lolium multiflorum); experiment: as above; settings: Postemergence, 10 days, 0 is no effect, 100 is complete control
How it was run: as §1

soybean (Glycine max) [23] = experiment: as above; settings: Postemergence, 10 days, 0 is no effect, 100 is complete control
How it was run: as §1

[24] = system: wheat (Triticum aestivum); experiment: as above; settings: Postemergence, 10 days, 0 is no effect, 100 is complete control
How it was run: as §1

[25] = system: barnyardgrass (Echinochloa crusgalli); experiment: Test B flooded paddy test, visual plant response rating 0-100; settings: 250 g ai/ha, Flood, applied to paddy water, evaluated after 13 days
How it was run: (§2)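 2-leaf plants; flood 3 cm over soil; compound dosed into paddy water; depth kept constant; greenhouse 13 d; visual scoring vs controls. Dash = no result.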

[26] = system: ducksalad (Heteranthera limosa); experiment: as above; settings: 250 g ai/ha, Flood, applied to paddy water, evaluated after 13 days
How it was run: as §2

rice (Oryza sativa) = experiment: as above; settings: 250 g ai/ha, Flood, applied to paddy water, evaluated after 13 days
How it was run: as §2

[27] = system: sedge, umbrella (small-flower umbrella sedge, Cyperus difformis); experiment: as above; settings: 250 g ai/ha, Flood, applied to paddy water, evaluated after 13 days
How it was run: as §2

CCOC(=O)C1C=CC(NC(=O)C2(C)CN(c3cc(Cl)cc(Cl)c3)C(=O)O2)C1 (stereo not shown) [Compound 44]
Barnyardgrass plant response rating (0 to 100 scale) ([1]; 125 g ai/ha): 100 | Barnyardgrass plant response rating (0 to 100 scale) ([1]; 500 g ai/ha): 100 | Blackgrass plant response rating (0 to 100 scale) ([2]; 125 g ai/ha): 90 | Blackgrass plant response rating (0 to 100 scale) ([2]; 500 g ai/ha): 100 | Corn plant response rating (0 to 100 scale) (corn (Zea mays) [3]; 125 g ai/ha): 70 | Corn plant response rating (0 to 100 scale) (corn (Zea mays) [3]; 500 g ai/ha): 90 | Foxtail, Green plant response rating (0 to 100 scale) ([4]; 125 g ai/ha): 90 | Foxtail, Green plant response rating (0 to 100 scale) ([4]; 500 g ai/ha): 100 | Kochia plant response rating (0 to 100 scale) (kochia (Bassia scoparia) [5]; 125 g ai/ha): 100 | Kochia plant response rating (0 to 100 scale) (kochia (Bassia scoparia) [5]; 500 g ai/ha): 100 | Oat, Wild plant response rating (0 to 100 scale) ([6]; 125 g ai/ha): 80 | Oat, Wild plant response rating (0 to 100 scale) ([6]; 500 g ai/ha): 90 | Amaranth, Palmer plant response rating (0 to 100 scale) ([7]; 125 g ai/ha): 100 | Amaranth, Palmer plant response rating (0 to 100 scale) ([7]; 500 g ai/ha): 100 | Ragweed plant response rating (0 to 100 scale) ([8]; 125 g ai/ha): 10 | Ragweed plant response rating (0 to 100 scale) ([8]; 500 g ai/ha): 60 | Ryegrass, Italian plant response rating (0 to 100 scale) ([9]; 125 g ai/ha): 90 | Ryegrass, Italian plant response rating (0 to 100 scale) ([9]; 500 g ai/ha): 100 | Soybean plant response rating (0 to 100 scale) (soybean (Glycine max) [10]; 125 g ai/ha): 20 | Soybean plant response rating (0 to 100 scale) (soybean (Glycine max) [10]; 500 g ai/ha): 70 | Wheat plant response rating (0 to 100 scale) ([11]; 125 g ai/ha): 90 | Wheat plant response rating (0 to 100 scale) ([11]; 500 g ai/ha): 90 | Barnyardgrass plant response rating (0 to 100 scale) ([12]; 125 g ai/ha): 100 | Barnyardgrass plant response rating (0 to 100 scale) ([12]; 500 g ai/ha): 100 | Blackgrass plant response rating (0 to 100 scale) ([13]; 125 g ai/ha): 100 | Blackgrass plant response rating (0 to 100 scale) ([13]; 500 g ai/ha): 100 | Corn plant response rating (0 to 100 scale) (corn (Zea mays) [14]; 125 g ai/ha): 100 | Corn plant response rating (0 to 100 scale) (corn (Zea mays) [14]; 500 g ai/ha): 100 | Galium plant response rating (0 to 100 scale) ([15]; 125 g ai/ha): 70 | Galium plant response rating (0 to 100 scale) ([15]; 500 g ai/ha): 70 | Foxtail, Green plant response rating (0 to 100 scale) ([16]; 125 g ai/ha): 90 | Foxtail, Green plant response rating (0 to 100 scale) ([16]; 500 g ai/ha): 90 | Horseweed plant response rating (0 to 100 scale) ([17]; 125 g ai/ha): 90 | Horseweed plant response rating (0 to 100 scale) ([17]; 500 g ai/ha): 90 | Kochia plant response rating (0 to 100 scale) (kochia (Bassia scoparia) [18]; 125 g ai/ha): 80 | Kochia plant response rating (0 to 100 scale) (kochia (Bassia scoparia) [18]; 500 g ai/ha): 80 | Oat, Wild plant response rating (0 to 100 scale) ([19]; 125 g ai/ha): 90 | Oat, Wild plant response rating (0 to 100 scale) ([19]; 500 g ai/ha): 90 | Amaranth, Palmer / Pigweed, Palmer plant response rating (0 to 100 scale) ([20]; 125 g ai/ha): 100 | Amaranth, Palmer / Pigweed, Palmer plant response rating (0 to 100 scale) ([20]; 500 g ai/ha): 100 | Ragweed plant response rating (0 to 100 scale) ([21]; 125 g ai/ha): 70 | Ragweed plant response rating (0 to 100 scale) ([21]; 500 g ai/ha): 80 | Ryegrass, Italian plant response rating (0 to 100 scale) ([22]; 125 g ai/ha): 90 | Ryegrass, Italian plant response rating (0 to 100 scale) ([22]; 500 g ai/ha): 80 | Soybean plant response rating (0 to 100 scale) (soybean (Glycine max) [23]; 125 g ai/ha): 90 | Soybean plant response rating (0 to 100 scale) (soybean (Glycine max) [23]; 500 g ai/ha): 80 | Wheat plant response rating (0 to 100 scale) ([24]; 125 g ai/ha): 90 | Wheat plant response rating (0 to 100 scale) ([24]; 500 g ai/ha): 90 | Plant response rating, Barnyardgrass (0 to 100 scale, 0 is no effect and 100 is complete control) [25]: 80 | Plant response rating, Ducksalad (0 to 100 scale, 0 is no effect and 100 is complete control) [26]: 90 | Plant response rating, Rice (0 to 100 scale, 0 is no effect and 100 is complete control) (rice (Oryza sativa)): 15 | Plant response rating, Sedge, Umbrella (0 to 100 scale, 0 is no effect and 100 is complete control) [27]: 95

From US20260285850A1, “SUBSTITUTED OXAZOLIDINONES AND IMIDAZOLINONES AS HERBICIDES” (FMC CORPORATION, priority 2023, published 2026)
